The values that follow come from patent publication US6562828B1, “Amidine compounds” (Japan Tobacco Inc., priority 1998, dated 2003).

Structures can show the parent of a compound that is named as a salt. Bounds are passed on as bounds.

In assay [1] the target is T1, Human FXa (Homo sapiens, UniProt P00742).
T1 construct: Human FXa [Enzyme research Laboratories (USA)] enzyme; purchased Enzyme Research Laboratories (USA)
Briefly: Determination of anti-factor Xa (FXa) activity, synthetic substrate S-2222. Type of assay: biochemical. As to conditions: S-2222, 37° C., pH 8.4, read-out: Experimental Example 1: anti-FXa activity, IC50. As to the method: Determination of Anti-factor Xa (FXa) Activity
Human FXa [Enzyme research Laboratories (USA)] enzyme (40 μl, 0.16U/ml) and test compounds (40 l) adjusted to various concentrations were incubated in 0.1M Tris (Tris-hydroxymethyl-aminomethane) buffer (pH 8.4) containing 0.2M sodium chloride (herein to be referred to as 0.1 M tris-0.2M NaCl buffer) (40 μl) at 37° C. for 10 min. A synthetic substrate S-2222 (Daiichi Pure Chemical (Tokyo, Japan), 40 μl) adjusted to 0.8 mM was added and the mixture was incubated at 37° C. for 10 min. The reaction was stopped by addition of 60% acetic acid (40 μl) and absorbance at 405 nm was measured by Model 3550 (BIO-RAD). For the control, the solvent was used instead of the test compound.
Target sequence in this assay (P00742 235-488 limits assumed): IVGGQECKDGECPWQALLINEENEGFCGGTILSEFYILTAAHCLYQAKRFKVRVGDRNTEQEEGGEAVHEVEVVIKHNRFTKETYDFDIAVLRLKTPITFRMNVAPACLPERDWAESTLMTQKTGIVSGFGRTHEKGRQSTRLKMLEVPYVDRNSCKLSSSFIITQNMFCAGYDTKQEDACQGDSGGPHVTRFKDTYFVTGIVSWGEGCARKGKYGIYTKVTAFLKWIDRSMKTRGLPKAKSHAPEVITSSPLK
Target sequence in this assay (P00742 41-179 partner limits assumed): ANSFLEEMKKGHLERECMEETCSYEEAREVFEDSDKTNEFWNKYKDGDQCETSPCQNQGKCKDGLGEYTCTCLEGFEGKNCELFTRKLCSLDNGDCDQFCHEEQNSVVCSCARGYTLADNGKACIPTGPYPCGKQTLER

Another assay deals with T2, Human FIIa (Homo sapiens, UniProt P00734).
T2 construct: purchased Sigma
Briefly: Determination of anti-factor IIa (FIIa) activity, synthetic substrate S-2238. The format is biochemical. As to conditions: S-2238, 37° C., pH 8.4, read-out: Experimental Example 2: anti-FIIa activity, IC50.

In assay [2] the target is T1, Human FXa. Briefly: Intravenous administration test in mouse, human FXa inhibitory activity in serum. Type of assay: in vivo. As to conditions: ICR mice, i.v., mean ± S.D., n = 3. The method, then: Intravenous Administration Tests in Mouse
A test compound dissolved in physiological saline was intravenously administered to ICR mice (body weight 20-30 g, 4-6 weeks old) and the activity of the test compound was evaluated based on the human FXa inhibitory activity in serum as an indicator.
At 10, 30, 60, 120 min from the intravenous administration, blood was taken from the eye ground using a hematocrit tube. The blood was centrifuged at 9000 G for 5 min and the obtained serum was used for the determination.
(§1) Human FXa inhibitory activity was measured as follows. Human FXa [Enzyme research Laboratories (USA)] enzyme (40 μl, 0.5 U/ml) and a 4-fold diluted plasma sample (40 μl) were incubated in 0.1M Tris-0.2M NaCl buffer (pH 8.4) (40 μl) at 37° C. for 10 min. A synthetic substrate S-2222 (Daiichi Pure Chemical (Tokyo, Japan), 40 μl) adjusted to 0.8 mM was added and the mixture was incubated at 37° C. for 5 min. The reaction was stopped by addition of 60% acetic acid (40 μl) and absorbance at 405 nm was measured by Model 3550 (BIO-RAD). For the control, serum or plasma obtained prior to blood sampling was used for measurement. Human FXa inhibitory activity was calculated as inhibition percentage (%) against control.
Target sequence in this assay (P00742 235-488 limits assumed): as the sequence (P00742 235-488 limits assumed) above
Target sequence in this assay (P00742 41-179 limits assumed): as the sequence (P00742 41-179 partner limits assumed) above

Assay [3] addresses T1, Human FXa. Briefly: Oral administration test in mouse, human FXa inhibitory activity in serum. Type of assay: in vivo. As to conditions: ICR mice, mean ± S.D., n = 3. The method, then: as §1
Target sequence in this assay (P00742 235-488 limits assumed): as the sequence (P00742 235-488 limits assumed) above
Target sequence in this assay (P00742 41-179 limits assumed): as the sequence (P00742 41-179 partner limits assumed) above
Oral Administration Tests in Mouse
A test compound dissolved in distilled water was orally administered to ICR mice (body weight 20-30 g, 4-6 weeks old) and the activity of the test compound was evaluated based on the human FXa inhibitory activity in serum as an indicator.
At 30, 60, 120, 180 min from the oral administration, blood was taken from the eye ground using a hematocrit tube. The blood was centrifuged at 9000 G for 5 min and the obtained serum was used for the determination. Human FXa inhibitory activity was determined in the same manner as in the test by intravenous administration.

As for `CC(=N)N1CCC(Oc2ccc(N(Cc3nc4cc(C(=N)N)ccc4n3CC(=O)Nc3ccc(OCc4ccccc4)cc3)C(=O)c3ccc(C(=O)O)cc3)cc2)CC1` [Example 18, 4-[N-[5-Amidino-1-(4-benzyloxyphenylcarbamoylmethyl)benzimidazol-2-ylmethyl]-N-[4-(1-acetimidoylpiperidin-4-yloxy)phenyl]carbamoyl]benzoic Acid Dihydrochloride], the figures for the IC50 at Human FXa [1] and at Human FIIa were 10 nM and > 10 µM, respectively. In addition, the inhibition at 1 mg/kg at Human FXa [2] (10 minutes) was 73 ± 1%; against Human FXa [2] (30 minutes), 60 ± 4%; at Human FXa [2] (60 minutes), 40 ± 3%; on Human FXa [2] (120 minutes) it was 23 ± 5%.

With `CC(=N)N1CCC(Oc2ccc(OCc3nc4cc(C(=N)N)ccc4n3CC(=O)c3ccccc3)cc2)CC1` [Example 57, 2-[4-(1-Acetimidoylpiperidin-4-yloxy)phenoxymethyl]-1-phenacylbenzimidazole-5-carboxamidine Dihydrochloride], the figures for the IC50 on Human FXa [1] and at Human FIIa were 50 nM and > 10 µM, respectively.

In the case of `CCOC(=O)C(=O)N(Cc1nc2cc(C(=N)N)ccc2n1CC(=O)NC1CCCCC1)C1CCN(c2ccncc2)CC1` [Example 60, 1-(Cyclohexylcarbamoylmethyl)-2-[N-[1-(pyridin-4-yl)piperidin-4-yl]-N-ethoxalylaminomethyl]benzimidazole-5-carboxamidine Dihydrochloride], the results for the concentration for half-maximal inhibition (IC50) at Human FXa [1] and on Human FIIa were 900 nM and > 10 µM, respectively.

On to `N=C(N)c1ccc2c(c1)nc(CN(C(=O)C(=O)O)C1CCN(c3ccncc3)CC1)n2CC(=O)NC1CCCCC1` [Example 61, N-[5-Amidino-1-(cyclohexylcarbamoylmethyl)benzimidazole-2-ylmethyl]-N-[l-(pyridin-4-yl)piperidin-4-yl]aminooxalic Acid Dihydrochloride], for which the IC50 at Human FXa [1] was 300 nM; at Human FIIa, > 10 µM.

On to `CCOC(=O)CN(Cc1nc2cc(C(=N)N)ccc2n1CC(=O)NC1CCCCC1)c1ccc(OC2CCN(C(C)=N)CC2)cc1` [Example 62, 2-[N-[4-(1-Acetimidoylpiperidin-4-yloxy)phenyl]-N-ethoxycarbonyl-methylaminomethyl]-1-(cyclohexylcarbamoylmethyl)benzimidazole-5-carboxamidine Dihydrochloride], for which the results for the IC50 at Human FXa [1] and on Human FIIa were 100 nM and > 10 µM, respectively.

As for `CC(=N)N1CCC(Oc2ccc(N(Cc3nc4cc(C(=N)N)ccc4n3CC(=O)NC3CCCCC3)C(=O)c3ccc(C(=O)O)cc3)cc2)CC1` [Example 63, N-[5-Amidino-1-(cyclohexylcarbamoylmethyl)benzimidazol-2-ylmethyl]-N-[4-(1-acetimidoylpiperidin-4-yloxy)phenyl]carbamoylbenzoic Acid], the IC50 at Human FXa [1] was 10 nM; at Human FIIa, > 10 µM. Further, the inhibition at 0.3 mg/kg on Human FXa [2] (10 minutes) came to 32 ± 2%; against Human FXa [2] (30 minutes), 16 ± 3%; against Human FXa [2] (60 minutes), 4 ± 3%; against Human FXa [2] (120 minutes), 1 ± 3%. In addition, the inhibition at 1 mg/kg at Human FXa [2] (10 minutes) stood at 55 ± 3%; against Human FXa [2] (30 minutes) it was 46 ± 5%; against Human FXa [2] (60 minutes), 16 ± 7%; against Human FXa [2] (120 minutes) it was 3 ± 6%. For the same molecule, the inhibition at 10 mg/kg at Human FXa [3] (30 minutes) came out at 22 ± 6%; against Human FXa [3] (60 minutes) it was 14 ± 9%; at Human FXa [3] (120 minutes), 12 ± 10%; against Human FXa [3] (180 minutes), 12 ± 4%.

Turning to `COC(=O)c1ccc(C(=O)N(Cc2nc3cc(C(=N)N)ccc3n2CC(=O)NC2CCCCC2)c2ccc(OC3CCN(C(=N)N)CC3)cc2)cc1` [Example 64, 2-[N-[4-(1-Amidinopiperidin-4-yloxy)phenyl]-N-(4-methoxycarbonyl-benzoyl)aminomethyl]-1-(cyclohexylcarbamoylmethyl)benzimidazole-5-carboxamidine Dihydrochloride], the results for the 50% inhibitory concentration (IC50) at Human FXa [1] and on Human FIIa were 100 nM and > 10 µM, respectively. For the same molecule, the inhibition at 1 mg/kg at Human FXa [2] (10 minutes) came to 55 ± 2%; against Human FXa [2] (30 minutes), 43 ± 5%; against Human FXa [2] (60 minutes), 28 ± 6%.

With `N=C(N)c1ccc2c(c1)nc(CN(C(=O)c1ccc(C(=O)O)cc1)c1ccc(OC3CCN(C(=N)N)CC3)cc1)n2CC(=O)NC1CCCCC1` [Example 65, N-[5-Amidino-1-(cyclohexylcarbamoylmethyl)benzimidazol-2-ylmethyl]-N-[4-(1-amidinopiperidin-4-yloxy)phenyl]carbamoylbenzoic Acid Dihydrochloride], the IC50 on Human FXa [1] is 20 nM; on Human FIIa, > 10 µM. The inhibition at 1 mg/kg against Human FXa [2] (10 minutes) was found to be 55 ± 1%; against Human FXa [2] (30 minutes), 34 ± 2%; on Human FXa [2] (60 minutes), 17 ± 2%.

For `N=C(N)N1CCc2ccc(OCC3CCN(S(=O)(=O)NCc4ccccc4)CC3)cc2C1` [Example 83, N-Benzyl-4-(2-amidino-1,2,3,4-tetrahydroisoquinolin-7-yloxymethyl)piperidine-1-sulfonamide hydrochloride], the half-inhibitory concentration (IC50) at Human FXa [1] was 700 nM; on Human FIIa, > 10 µM.

For the molecule `N=C(N)N1CCc2ccc(OCC3CCN(c4ccncc4CCC(=O)O)CC3)cc2C1` [Example 89, 3-[4-[4-(2-Amidino-1,2,3,4-tetrahydroisoquinolin-7-yloxymethyl)piperidin-1-yl]pyridin-3-yl]propionic Acid Dihydrochloride], the IC50 on Human FXa [1] is 200 nM; on Human FIIa, > 10 µM.

With `CCOC(=O)C1(COc2ccc3c(c2)CN(C(=N)N)CC3)CCN(c2ccc(C(=N)N)cc2)CC1` [Example 98, 4-(2-Amidino-1,2,3,4-tetrahydroisoquinolin-7-yloxymethyl)-1-(4-amidinophenyl)-piperidine-4-carboxylic Acid Ethyl Ester Dihydrochloride], the results for the IC50 on Human FXa [1] and at Human FIIa were 400 nM and > 10 µM, respectively.

For the molecule `CC(=N)N1CCC(Oc2ccc(N(Cc3nc4cc(C(=N)N)ccc4n3C/C=C/c3ccccc3)C(=O)c3ccc(C(=O)O)cc3)cc2)CC1` [Example 109, N-[5-Amidino-1-(3-phenyl-2-propenyl)benzimidazol-2-ylmethyl]-N-[4-(1-acetimidoylpiperidin-4-yloxy)phenyl]carbamoylbenzoic Acid Dihydrochloride], the figures for the IC50 on Human FXa [1] and on Human FIIa were 200 nM and > 10 µM, respectively.

With `CCN=C(N)N1CCC(Oc2ccc(N(Cc3nc4cc(C(=N)N)ccc4n3CC(=O)NC3CCCCC3)C(=O)c3ccc(C(=O)O)cc3)cc2)CC1` [Example 112, N-[5-Amidino-1-(cyclohexylcarbamoylmethyl)benzimidazol-2-ylmethyl]-N-[4-[1-(N-ethylamidino)piperidin-4-yloxy]phenyl]carbamoylbenzoic Acid Dihydrochloride], the IC50 on Human FXa [1] was 20 nM; on Human FIIa, > 10 µM. For the same molecule, the inhibition at 1 mg/kg on Human FXa [2] (10 minutes) turned out to be 49 ± 1%; at Human FXa [2] (30 minutes) it was 41 ± 8%; against Human FXa [2] (60 minutes), 23 ± 11%.

As a reminder, the IC50 is the point on the concentration scale where inhibition reaches its midpoint. A word on the inhibition: it is the share of the control response that was lost under treatment. A lower inhibition goes with a response near the control.
